Assays:
[1] = Antioxidant screening in the formulation; type: physicochemical; conditions: alpha-tocopherol at 0.5% concentration in surfactant phase; ascorbic acid in aqueous phase
Text: Alpha tocopherol and ascorbic acid were screened for their effectiveness for use within the formulation. Ascorbic acid was used in the aqueous phase whereas the alpha tocopherol was used in the surfactant phase in terms of order of addition.

[2] = cited from earlier work
[3] = oral and parenteral administration in animals; cited from earlier work

Compound | appearance of solutions containing the antioxidant [1] | acute toxicity [3] | further results
O=C1O[C@H]([C@@H](O)CO)C(O)=C1O [ascorbic acid] | clear colourless solutions |  | 
OC[C@H]1O[C@H](O[C@]2(CCl)O[C@H](CCl)[C@@H](O)[C@@H]2O)[C@H](O)[C@@H](O)[C@H]1Cl [Sucralose] |  |  | ADI limit ([2]; pediatric population): 5 mg/kg/day
Cc1c(C)c2c(c(C)c1O)CC[C@@](C)(CCC[C@H](C)CCC[C@H](C)CCCC(C)C)O2 [alpha-tocopherol] | hazy |  | 
COC(=O)c1ccc(O)cc1 [methylparaben, methyl parahydroxybenzoate] |  | practically non-toxic | 
CCCOC(=O)c1ccc(O)cc1 [propyl paraben, propyl parahydroxybenzoate] |  | relatively non-toxic | permitted daily exposure (PDE) ([2]; adults and pediatric patients): 2 mg/kg/day
